The values that follow come from patent US20220402903A1, “ISOXAZOLINE COMPOUND WITH OPTICAL ACTIVITY AND USE” (SHENYANG SINOCHEM AGROCHEMICALS R&D CO., LTD., priority 2019, published 2022).

Common to all, as to assay: Greenhouse herbicidal activity, post-emergence stem and leaf spray
What all share (assay type): in vivo

One assay deals with Abutilon theophrasti. Particulars: for Control effect on Abutilon theophrasti: post-emergence, dose 4 g a.i./hm^2, visual, 0 = no control effect, 100% = weeds completely killed. From the text: (§1) The test method of the herbicidal activity of the compound in the present invention is as follows:
(§2) Quantitative grass weed (Echinochloa crusgalli and Setaria viridis) and broad-leaved weed (Abutilon theophrasti and Zinnia elegans) seeds were sown in paper cups having a diameter of 7 cm and containing nutrient soil, after sowing, the seeds were covered with 1 cm of soil, the soil was pressed and watered, and then the seeds were cultivated in a greenhouse according to a conventional method. The grass weeds grew to 2-3 leaf stages, the broad-leaved weeds grew to 2-4 leaf stages, stem and leaves were sprayed. Before emergence, the soil was sprayed within 24 hours after sowing. According to the design dose of the test, spray treatment was carried out on a track-type crop sprayer (designed and produced by British Engineer Research Ltd.) (spray pressure is 1.95 kg/cm^2, spray volume is 500 L/hm^2 and track speed is 1.48 km/h). The test was repeated for three times. The test material was treated and then placed in an operation hall. The medicinal liquid was naturally dried in the shade, and then was placed in a greenhouse and managed according to the conventional method. The response of the weeds to the test compound was observed and recorded. After treatment, the control effects of the test compound on the weeds were visually inspected regularly.
(§3) The grading standards of the control effects: 0 represents no control effect and 100% represents that the weeds are completely killed or greatly controlled.

The next assay deals with Echinochloa crusgalli. The conditions noted are these: for Control effect on Echinochloa crusgalli: post-emergence, visual, 0 = no control effect, 100% = weeds completely killed.
Source text: as §1, §2, §3

A further assay has as its system Setaria viridis. The conditions noted are these: for Control effect on Setaria viridis: post-emergence, visual, 0 = no control effect, 100% = weeds completely killed.
Source text: as §1, §2, §3

A further assay has as its system Zinnia elegans. Particulars: for Control effect on Zinnia elegans: post-emergence, dose 4 g a.i./hm^2, visual, 0 = no control effect, 100% = weeds completely killed.
Source text: as §1, §2, §3

Setting [1] is: post-emergence treatment, dose 4-8 g a.i./hm^2.

For the compound `CCOC(=O)C1(C)CC(c2cc(-n3c(=O)cc(C(F)(F)F)n(C)c3=O)c(F)cc2Cl)=NO1` (stereo not shown) [CN105753853 Compound 6, reference compound], in the assay on Abutilon theophrasti, the “Control effect on Abutilon theophrasti” value turned out to be 60%. In addition, the “Control effect on Echinochloa crusgalli” value is listed as 45% in the assay on Echinochloa crusgalli (dose 4 g a.i./hm^2) and 50% in the assay on Echinochloa crusgalli (dose 8 g a.i./hm^2). Also, the results for the “Control effect on Setaria viridis” value with Setaria viridis (dose 4 g a.i./hm^2) and in the assay on Setaria viridis (dose 8 g a.i./hm^2) were 25% and 55%, respectively. The “Control effect on Zinnia elegans” value with Zinnia elegans came to 90%.
Take `CCOC(=O)[C@]1(C)CC(c2cc(-n3c(=O)cc(C(F)(F)F)n(C)c3=O)c(F)cc2Cl)=NO1` [Compound 3]: the “Herbicidal activity on Abutilon theophrasti (in words)” value in the assay with Abutilon theophrasti (setting [1]) is listed as “high herbicidal activity”. For the same compound, in the assay on Abutilon theophrasti, the “Control effect on Abutilon theophrasti” value is recorded as 90%. Besides, the “Herbicidal activity on Echinochloa crusgalli (in words)” value in the assay with Echinochloa crusgalli (setting [1]) is listed as “high herbicidal activity”. Besides, the “Control effect on Echinochloa crusgalli” value in the assay with Echinochloa crusgalli (dose 4 g a.i./hm^2) amounted to 90%; with Echinochloa crusgalli (dose 8 g a.i./hm^2), 98%. In addition, the “Herbicidal activity on Setaria viridi (in words)” value in the assay on Setaria viridis (setting [1]) is on record as “high herbicidal activity”. For the same compound, the “Control effect on Setaria viridis” value stood at 75% in the assay on Setaria viridis (dose 4 g a.i./hm^2) and 85% with Setaria viridis (dose 8 g a.i./hm^2). Moreover, in the assay with Zinnia elegans (setting [1]), the “Herbicidal activity on Zinnia elegans (in words)” value is “high herbicidal activity”. The “Control effect on Zinnia elegans” value with Zinnia elegans is 100%.
